Laboratory results reported in patent publication US9428553B2, “Meditopes and meditope-binding antibodies and uses thereof” (City of Hope, priority 2012, dated 2016).
Entries after “also recorded” stand apart in the source; their conditions may differ. Values belong to the molecule of their own block, whether it stands above or below them. Where a SMILES comes first, the peptide text is derived from it. Bridges are numbered along the chain shown (N, C = ends). Where no end group is shown, it is not given here.

Columns and labels:
sEGFRdIII = biological target: T1, sEGFRdIII (Homo sapiens, UniProt P00533); experiment: FRET titration of labeled cetuximab Fab with labeled sEGFRdIII; format: binding; conditions: in the presence of the cQFD meditope (66 μM)
T1 construct: soluble epidermal growth factor receptor domain III (sEGFRdIII) were expressed in Sf9 cells; made in house; host or cells: Sf9 cells
T1 sequence (P00533 335-538 limits assumed): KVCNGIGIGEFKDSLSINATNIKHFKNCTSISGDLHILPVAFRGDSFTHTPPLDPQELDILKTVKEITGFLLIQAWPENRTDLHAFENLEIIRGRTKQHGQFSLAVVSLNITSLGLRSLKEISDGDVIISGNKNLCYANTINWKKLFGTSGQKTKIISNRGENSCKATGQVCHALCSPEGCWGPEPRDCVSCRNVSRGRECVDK

MDA-MB-468 cells [1] = experiment: MTT assay; format: cell-based; conditions: for cell growth: 48-hour incubation, 0.1 μM cetuximab, 0.01, 0.1 and 1 μM meditope or meditope-Fc
Protocol: 4000 MDA-MB-468 cells were placed in each well of a 96 well plate in 80 μl of medium.
The assay compared the enhancement of cetuximab-mediated inhibition of antigen-expressing tumor cell growth by meditope-Fc and by M425 (a mouse anti-EGFR antibody). 4000 MDA-MB-468 cells were placed in each well of a 96 well plate in 80 μl of medium. […] After a 48-hour incubation period, 10 μl MTT reagent was added and the mixture allowed to incubate for an additional 4 hours. The culture supernatant was removed, 100 μl of MTT crystal dissolving reagent added, and the plate read at 630 nm.

cetuximab [2] = experiment: SPR binding affinity as a function of buffer pH; conditions: pH=4.0 to pH=8.0
From the text: FIG. 27 is a graph showing surface plasmon resonance (SPR) studies.

MDA MB-468 cells = experiment: FACS, cetuximab binding to EGFR-expressing cells in the presence of meditope; format: cell-based; conditions: meditope concentrations greater than 60 μM
Protocol: Labeled MOPS-21 was used as an isotype control. Cell fluorescence was determined using a FACS Calibur instrument (BD Biosciences).

cetuximab [3] = experiment: SPR (Biacore T100), variant meditopes over immobilized cetuximab IgG or cetuximab Fab; format: binding; conditions: in words
Protocol: The final volume after dialysis was carefully measured and absorbance measurements were taken to estimate the concentration (typically 1-10 mM). These stock solutions were used to make dilutions into HBS-EP buffer (10 mM Hepes pH 7.4, 150 mM NaCl, 3 mM EDTA and 0.05% v/v surfactant P20) for SPR measurements. […] Ligands were immobilized at low levels suitable for kinetic data. Typical kinetics SPR experiments were carried out at a flow rate of 30 μL/min using HBS-EP as both running and regeneration buffer. Kinetic parameters were calculated using the Biacore T100 evaluation software version 2.0.1.
Each chip was first characterized using a soluble fragment of the entire extracellular domain of EGFR (residues 1-621).

[4] = tested on: meditope-enabled M5A (M5A 8M); experiment: SPR, meditope variants with meditope-enabled M5A; format: binding; conditions: FIG. 58
cetuximab Fab = experiment: SPR, meditopes over cetuximab Fab immobilized on CM5 chip; format: binding; conditions: relative to WT cQFD
Protocol: Affinity analysis by SPR was performed as previously described (Donaldson et al., 2009; Li et al., 2005, supra). […] SEC was performed using a Superdex 200 10/300 column (GE Healthcare). The proteins were mixed, incubated at room temperature for 20 min and applied to the column at 4° C.
The binding kinetics were also measured (FIG. 3).
The point mutation and wild type cQFD meditopes were generated as C-terminal fusions to SMT3 and cleaved with Ulp1 before the analysis.

[5] = tested on: meditope-enabled trastuzumab (TM); experiment: SPR, MPL linker variants flowed over immobilized TM; conditions: 1:1 langmuir binding model
Protocol: Protein was purified by affinity and size exclusion chromatography. […] Kinetic information was calculated using Biaevaluation software using a 1:1 langmuir binding model.

SKBR3 cells = experiment: FACS, antibody and meditope binding to HER2 over-expressing cells; format: cell-based
From the text: Unbound antibody was washed twice and analyzed by flow cytometry.

MDA-MB-468 cells [6] = experiment: FACS, meditope binding to cetuximab pre-treated EGFR-expressing cells; format: cell-based
Protocol: In another study, the meditope-Fc fusion protein was labeled with Alexa488 as described above. […] Unbound antibody was washed and the cells were incubated with the meditope-Fc (600 nM, 180 nM, or 60 nM) for 30 minutes.

Molecule: CC(C)C[C@@H]1NC(=O)[C@H](CCCNC(=N)N)NC(=O)[C@H](CCCNC(=N)N)NC(=O)[C@H]([C@@H](C)O)NC(=O)[C@H](CO)NC(=O)[C@H](CC(C)C)NC(=O)[C@H](CC(=O)O)NC(=O)[C@H](Cc2ccccc2)NC(=O)[C@H](CCC(N)=O)NC(=O)[C@@H](N)CSSC[C@@H](C(=O)O)NC(=O)[C@H](CCCCN)NC1=O [Meditope 1]
change in the binding constant of the Fab-sEGFRdIII interaction (sEGFRdIII): no substantial change
cell growth (MDA-MB-468 cells [1]): Neither addition of monovalent meditope (alone or with cetuximab), or meditope-Fc alone altered cell growth significantly
pH dependence of affinity (cetuximab [2]): slightly greater at higher pHs
changes in cetuximab binding to the cells (MDA MB-468 cells): no significant changes

Molecule: CC(C)C[C@@H]1NC(=O)[C@H](C)NC(=O)[C@H](CCCNC(=N)N)NC(=O)[C@H](CO)NC(=O)[C@H](CO)NC(=O)[C@H](CC(C)C)NC(=O)[C@H](CC(N)=O)NC(=O)[C@H](Cc2ccc(O)cc2)NC(=O)[C@H](CCC(N)=O)NC(=O)[C@@H](N)CSSC[C@@H](C(=O)O)NC(=O)[C@H](CCCCN)NC1=O [Meditope 2]
affinity compared to cQFD (cetuximab [3]): reduced
pH dependence of affinity (cetuximab [2]): flat pH dependence
binding to meditope-enabled antibody [4]: confirming binding

Molecule: CC(C)C[C@@H]1NC(=O)[C@H](CCCNC(=N)N)NC(=O)[C@H](CCCNC(=N)N)NC(=O)[C@H]([C@@H](C)O)NC(=O)[C@H](CO)NC(=O)[C@H](CC(C)C)NC(=O)[C@H](CC(=O)O)NC(=O)[C@H](C(c2ccccc2)c2ccccc2)NC(=O)[C@H](CCC(N)=O)NC(=O)[C@@H](N)CSSC[C@@H](C(=O)O)NC(=O)[C@H](CCCCN)NC1=O [Meditope 17, C-QXDLSTRRLK-C]
binding to meditope-enabled antibody [4]: confirming binding

Molecule: CC(C)C[C@@H]1NC(=O)[C@H](CCCNC(=N)N)NC(=O)[C@H](CCCNC(=N)N)NC(=O)[C@H]([C@@H](C)O)NC(=O)[C@H](CO)NC(=O)[C@H](C(c2ccccc2)c2ccccc2)NC(=O)[C@H](CC(=O)O)NC(=O)[C@H](Cc2ccccc2)NC(=O)[C@H](CCC(N)=O)NC(=O)[C@@H](N)CSSC[C@@H](C(=O)O)NC(=O)[C@H](CCCCN)NC1=O [Meditope 18, C-QFDXSTRRLK-C]
binding to meditope-enabled antibody [4]: confirming binding

Molecule: CC(C)C[C@@H]1NC(=O)[C@H](CC(=O)O)NC(=O)[C@H](Cc2ccccc2)NC(=O)[C@H](CCC(N)=O)NC(=O)[C@@H](N)CSSC[C@@H](C(=O)O)NC(=O)[C@H](CCCCN)NC(=O)[C@H](C)NC(=O)[C@H](CCCNC(=N)N)NC(=O)[C@H](CCCNC(=N)N)NC(=O)[C@H]([C@@H](C)O)NC(=O)[C@H](CO)NC1=O [Meditope 29] (H-CQFDLSTRRAKC-OH; disulfide 1-12)
ΔΔG (cetuximab Fab): 0.63 kcal/mol

Molecule: CC(C)C[C@@H]1NC(=O)[C@H](CCCNC(=N)N)NC(=O)[C@H](CCCNC(=N)N)NC(=O)[C@H]([C@@H](C)O)NC(=O)[C@H](CO)NC(=O)[C@H](CC(C)C)NC(=O)[C@H](CC(=O)O)NC(=O)[C@H](Cc2ccccc2)NC(=O)[C@H](CCC(N)=O)NC(=O)[C@@H](N)CSSC[C@@H](C(=O)O)NC(=O)[C@H](CCCCN)NC1=O [meditope]
off-rate, kd [5]: 0.01641 s⁻¹
on-rate, ka [5]: 13250 M⁻¹ s⁻¹

binding to meditope-enabled antibody [4]: confirming binding
Molecule: AcC-QFDLSTRRLR-CGGGSK [Meditope 31]

Molecule: C-QYDLSTRRLK-C (CQYDLSTRRLKC; disulfide 1-12) [Meditope 16, Y = tyrosine; Disulfide 1-Cys:12-Cys]
pH dependence of affinity (cetuximab [2]): marked decrease in affinity

off-rate, kd [5]: 6.441e-05 s⁻¹
Molecule: MPL (L3): meditope SCQFDLSTRRLKC fused to Protein L moiety through linker GGGGS
on-rate, ka [5]: 383200 M⁻¹ s⁻¹
meditope binding to antibody pre-bound cells (SKBR3 cells): tight binding affinity

Molecule: Q-FDLSTRRLK-X [Meditope 42, X = 7-aminoheptanoic acid; Lactam 1-Gln: 11-X]
affinity compared to cQFD (cetuximab [3]): decreased

Molecule: SQFDLSTRRLKS [Meditope 55, No linkage; linear peptide]
affinity compared to cQFD (cetuximab [3]): reduced affinity

Molecule: meditope-Fc: cQFD fused to the N-terminus of an IgG Fc region through a 17 amino acid glycine/serine linker
enhancement of cell-killing capacity of cetuximab (MDA-MB-468 cells [1]; 0.1 μM cetuximab with 0.2, 0.4 or 0.8 μM agent, 48 hours): enhanced the cell-killing capacity of cetuximab to a similar degree
cell growth (MDA-MB-468 cells [1]): inhibited cell growth
binding to cells pre-treated with cetuximab (MDA-MB-468 cells [6]): higher affinity compared to the meditope monomer; also recorded: bound to the cells incubated with cetuximab, but not to cells incubated with M425
meditope binding to antibody pre-bound cells (SKBR3 cells): binds to the meditope-enabled trastuzumab, but not to wild-type trastuzumab

off-rate, kd [5]: 0.02239 s⁻¹
Kd ([5]; read-out: Dissociation constant, KD): 275 nM
B1: MPL F3A R8A (L3): MPL mutant weakening the affinity of the meditope portion, linker L3 (protein)
chain: SCQADLSTARLKCGGGGSEVTIKVNLIFADGKIQTAEFKGTFEEATAEAYRYAALLAKVNGEYTADLEDGGNHMNIKFAG
on-rate, ka [5]: 81350 M⁻¹ s⁻¹
